Here are results for one molecule from patent US20030082101A1, “Accelerators for increasing the rate of formation of free radicals and reactive oxygen species” (Cavalier Discovery, priority 2001, published 2003).

In data set [1] the test system is deoxyribose. Briefly: TBARS assay, chelants during ultrasound exposure, ferrous iron (Example 1). Type of data set: biochemical. The settings on record: 0.025 mM ferrous iron, 0.03-0.04 mM chelant, 0.01% hydrogen peroxide, pH 7.5, 30 W 2 MHz 10 min. As to the method:
(§1) The following example uses the thiobarbituric acid-reactive substances (TBARS) assay to identify chelants that enhance radical production during ultrasound exposure. All solutions were prepared in pH 7.5 phosphate buffer containing approximately 2 mM deoxyribose, 0.01% hydrogen peroxide, 0.025 mM ferrous iron, and 0.03-0.04 mM chelant. Solutions were sonicated at 30 W, 2 MHz, 32-34 degrees Celsius for ten minutes using a PZT-8 1.8 cm diameter custom transducer. The sonicated solution was placed on an orbit shaker rotating at 25 RPM to ensure even sonication of the solution while the transducer was held stationary. Control solutions were placed in a controlled temperature bath at 32-34 degrees Celsius without sonication. After 10 minutes of treatment, 1 mL test solution was placed in a test tube followed by 2 mL of 1% 2-thiobarbituric acid and 2 mL of 2.8% trichloroacetic acid. The test tube was sealed and heated to 90 degrees Celsius for 30 minutes and allowed to cool to room temperature for 20 minutes. The absorbance at 532 nm was measured. The enhanced radical production during ultrasound exposure is determined by comparing the amount of deoxyribose degradation that occurs in the sonicated solution versus the control solution using the following equation: [formula]

The subject of data set [2] is deoxyribose. Briefly: TBARS assay, chelants during ultrasound exposure, ferric iron (Example 2). The class given is biochemical. The note with it: 0.02-0.03 mM ferric iron, 0.04-0.05 mM chelant, 0.01% hydrogen peroxide, pH 7.5, 30 W 2 MHz 10 min. Here is the method:
as §1, with “0.02-0.03” for “0.025”, “ferric” for “ferrous”, “0.04-0.05” for “0.03-0.04”, “was” for “is”

Data set [3] concerns deoxyribose. Briefly: TBARS assay, additives in solutions containing iron or iron plus a chelant, ultrasound (Example 5). The note with it: 0.08-0.1 mM ferric iron; EDTA 0.15 mM; 30 W 2 MHz 10 min. The class given is biochemical.
Description: The following example uses the thiobarbituric acid-reactive substances (TBARS) assay to identify compounds that enhance radical production during ultrasound exposure of solutions containing iron or iron plus a chelant. All solutions were prepared in pH 7.5 phosphate buffer containing approximately 2 mM deoxyribose, 0.01% hydrogen peroxide, 0.08-0.1 mM ferric iron, and the additives indicated in the table below. Solutions were sonicated at 30 W, 2 MHz, 32-34 degrees Celsius for ten minutes using a PZT-8 1.8 cm diameter custom transducer. The sonicated solution was placed on an orbit shaker rotating at 25 RPM to ensure even sonication of the solution while the transducer was held stationary. Control solutions were placed in a controlled temperature bath at 32-34 degrees Celsius without sonication. […] The test tube was sealed and heated to 90 degrees Celsius for 30 minutes and allowed to cool to room temperature for 20 minutes. The absorbance at 532 nm was measured. The enhanced radical production during ultrasound exposure was determined by comparing the amount of deoxyribose degradation that occurs in the sonicated solution versus the control solution using the following equation: [formula]
The conditions of data set [4]: on chelation of iron; cited from earlier work.

Structures are written as SMILES.

For `O=C(O)CN(CCN(CC(=O)O)CC(=O)O)CC(=O)O` [Ethylenediaminetetraacetic acid], the “% Ultrasound Mediated Activity vs Control” value with deoxyribose [1] was found to be 64%; in the data set with deoxyribose [2], 575%; with deoxyribose [3], 277%. Moreover, in data set [4], the “lowering of the redox potential of Fe(III)/Fe(II)” value was 0.65 V.
